Structures can show the parent of a compound that is named as a salt.

The target in the first assay is T1, human SGLT1 (Homo sapiens, UniProt P13866).
T1 construct: expressed in transfected cells; host or cells: CHO-K1
T1 sequence (P13866 1-664): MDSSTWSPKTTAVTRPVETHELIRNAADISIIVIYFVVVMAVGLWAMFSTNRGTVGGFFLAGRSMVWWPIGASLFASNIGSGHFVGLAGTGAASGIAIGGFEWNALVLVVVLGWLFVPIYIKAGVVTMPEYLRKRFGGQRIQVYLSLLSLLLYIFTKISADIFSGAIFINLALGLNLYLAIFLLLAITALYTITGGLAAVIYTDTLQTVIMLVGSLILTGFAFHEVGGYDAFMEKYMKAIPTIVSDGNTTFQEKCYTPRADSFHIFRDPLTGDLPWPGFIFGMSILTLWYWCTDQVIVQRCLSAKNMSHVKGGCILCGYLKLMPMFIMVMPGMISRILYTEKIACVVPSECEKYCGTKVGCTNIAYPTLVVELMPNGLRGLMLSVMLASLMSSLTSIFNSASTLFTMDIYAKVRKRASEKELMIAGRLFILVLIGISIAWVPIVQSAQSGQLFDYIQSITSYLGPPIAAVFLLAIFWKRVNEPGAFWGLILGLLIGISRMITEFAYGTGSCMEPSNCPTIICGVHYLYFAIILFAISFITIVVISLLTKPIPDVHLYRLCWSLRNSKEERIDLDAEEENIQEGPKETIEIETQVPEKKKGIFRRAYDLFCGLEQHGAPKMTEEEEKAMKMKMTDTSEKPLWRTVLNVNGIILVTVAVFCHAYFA
As to the kind of experiment: SGLT1 inhibition assay, 14C-AMG uptake in CHO-K1 cells stably expressing human SGLT1. The format is cell-based. Conditions: CHO-K1, CHO-K1 cells, 1 μM test compound; read-out: CHO-K1 Cells SGLT1 % Inh @1 μM. How it is done:
(§1) The cells were incubated for 24 hours. […] Plates were counted in a TopCount (Packard, Meriden, Conn.). Each experiment was repeated at least twice.
(§2) Results are reported as the %-inhibition or IC50 value.
Turning to `COCCOCCOCCOCCOc1ccc(Cc2cc([C@@H]3O[C@H](CO)[C@@H](O)[C@H](O)[C@H]3O)ccc2Cl)cc1` [Compound 1], the inhibition at 1 µM was determined as 14.5%.

As for `O=S(=O)(O)CCCOc1ccc(Cc2cc([C@@H]3O[C@H](CO)[C@@H](O)[C@H](O)[C@H]3O)ccc2Cl)cc1` [Compound 2, 3-(4-(2-chloro-5-((2S,3R,4R,5S,6R)-3,4,5-trihydroxy-6-(hydroxymethyl)tetrahydro-2H-pyran-2-yl)benzyl)phenoxy)propane-1-sulfonic acid], the inhibition at 1 µM amounted to 20%.

As for `C[N+]1(CCCCCOc2ccc(Cc3cc([C@@H]4O[C@H](CO)[C@@H](O)[C@H](O)[C@H]4O)ccc3Cl)cc2)CCCC1` [Compound 6, 1-(5-(4-(2-chloro-5-((2S,3R,4R,5S,6R)-3,4,5-trihydroxy-6-(hydroxymethyl)tetrahydro-2H-pyran-2-yl)benzyl)phenoxy)pentyl)-1-methylpyrrolidin-1-ium trifluoroacetate], the inhibition at 1 µM was found to be 43.1%.

Turning to `C[N+]1(CCOCCOc2ccc(Cc3cc([C@@H]4O[C@H](CO)[C@@H](O)[C@H](O)[C@H]4O)ccc3Cl)cc2)CCCC1` [Compound 7], the inhibition at 1 µM was determined as 17.5%.

Staying with this assay, now noted: CHO-K1, read-out: CHO-K1 Cells SGLT1 % Inh @1 μM.
On to `OC[C@H]1O[C@@H](c2ccc(Cl)c(Cc3ccc(OCc4ccc(COc5ccc(Cc6cc([C@@H]7O[C@H](CO)[C@@H](O)[C@H](O)[C@H]7O)ccc6Cl)cc5)nc4)cc3)c2)[C@H](O)[C@@H](O)[C@@H]1O` [Compound 14, (2R,2′R,3S,3′S,4R,4′R,5R,5′R,6S,6′S)-6,6′-(((((pyridine-2,5-diylbis(methylene))bis(oxy))bis(4,1-phenylene))bis(methylene))bis(4-chloro-3,1-phenylene))bis(2-(hydroxymethyl)tetrahydro-2H-pyran-3,4,5-triol) trifluoroacetate], for which the inhibition at 1 µM was 19%.

The same assay, now with this note: CHO-K1 cells; IC50 printed in the % Inh column.
By IC50 is commonly meant the concentration needed to halve the response being measured. Low readings indicate greater potency in that assay, high ones weaker potency in that assay. The compound `OC[C@H]1O[C@@H](c2ccc(Cl)c(Cc3ccc(OCCOCCOc4ccc(Cc5cc([C@@H]6O[C@H](CO)[C@@H](O)[C@H](O)[C@H]6O)ccc5Cl)cc4)cc3)c2)[C@H](O)[C@@H](O)[C@@H]1O` [Compound 10, (2R,2′R,3S,3′S,4R,4′R,5R,5′R,6S,6′S)-6,6′-(((((oxybis(ethane-2,1-diyl))bis(oxy))bis(4,1-phenylene))bis(methylene))bis(4-chloro-3,1-phenylene))bis(2-(hydroxymethyl)tetrahydro-2H-pyran-3,4,5-triol)] registered a half-inhibitory concentration (IC50) of 1490 nM.

In another assay the target is T2, human SGLT2 (Homo sapiens, UniProt P31639).
T2 construct: expressed in transfected cells; host or cells: CHO-K1
T2 sequence (P31639 1-672): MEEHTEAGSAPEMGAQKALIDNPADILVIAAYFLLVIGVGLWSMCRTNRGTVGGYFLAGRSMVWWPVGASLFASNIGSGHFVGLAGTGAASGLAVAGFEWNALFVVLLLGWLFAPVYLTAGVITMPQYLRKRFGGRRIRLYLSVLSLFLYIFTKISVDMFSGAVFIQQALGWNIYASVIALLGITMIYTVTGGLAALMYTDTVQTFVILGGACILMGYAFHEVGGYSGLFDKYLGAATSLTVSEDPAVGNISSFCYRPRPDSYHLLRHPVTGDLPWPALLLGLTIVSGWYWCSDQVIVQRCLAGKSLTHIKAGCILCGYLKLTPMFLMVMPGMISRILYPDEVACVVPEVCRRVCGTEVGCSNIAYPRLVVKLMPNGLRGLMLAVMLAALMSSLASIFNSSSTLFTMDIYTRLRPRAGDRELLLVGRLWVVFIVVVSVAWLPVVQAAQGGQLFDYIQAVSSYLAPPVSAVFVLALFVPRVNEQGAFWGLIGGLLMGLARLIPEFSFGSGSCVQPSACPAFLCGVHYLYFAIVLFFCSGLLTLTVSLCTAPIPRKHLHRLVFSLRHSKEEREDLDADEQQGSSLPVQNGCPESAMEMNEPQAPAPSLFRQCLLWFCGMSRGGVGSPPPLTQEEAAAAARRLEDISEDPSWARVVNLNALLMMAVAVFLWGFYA
As to the kind of experiment: SGLT2 inhibition assay, 14C-AMG uptake in CHO-K1 cells stably expressing human SGLT2. The format is cell-based.
Details: not given
The procedure: as §1, §2
Consider `O=C(O)C(CCC(Oc1ccc(Cc2cc([C@@H]3O[C@H](CO)[C@@H](O)[C@H](O)[C@H]3O)ccc2Cl)cc1)C(=O)O)Oc1ccc(Cc2cc([C@@H]3O[C@H](CO)[C@@H](O)[C@H](O)[C@H]3O)ccc2Cl)cc1` (mixture of isomers) [Compound 18], for which it took 377 nM to reach half-maximal inhibition (IC50).

`OC[C@H]1O[C@H](c2ccc(Cl)c(Cc3ccc(OCc4cc(COc5ccc(Cc6cc([C@@H]7O[C@H](CO)[C@@H](O)[C@H](O)[C@H]7O)ccc6Cl)cc5)c(COc5ccc(Cc6cc([C@@H]7O[C@H](CO)[C@@H](O)[C@H](O)[C@H]7O)ccc6Cl)cc5)cc4COc4ccc(Cc5cc([C@@H]6O[C@H](CO)[C@@H](O)[C@H](O)[C@H]6O)ccc5Cl)cc4)cc3)c2)[C@H](O)[C@@H](O)[C@@H]1O` [(III), (2R,2′R,2″R,3S,3′S,3″S,4R,4′R,4″R,5R,5′R,5″R,6S,6′S,6″S)-6,6′,6″-((((((5-((4-(2-chloro-5-((2R,3R,4R,5S,6R)-3,4,5-trihydroxy-6-(hydroxymethyl)tetrahydro-2H-pyran-2-yl)benzyl)phenoxy)methyl)benzene-1,2,4-triyl)tris(methylene))tris(oxy))tris(benzene-4,1-diyl))tris(methylene))tris(4-chlorobenzene-3,1-diyl))tris(2-(hydroxymethyl)tetrahydro-2H-pyran-3,4,5-triol)] came in with an IC50 of 33 nM.

The compound `OC[C@H]1O[C@@H](c2ccc(Cl)c(Cc3ccc(OCCOCCOc4ccc(Cc5cc([C@@H]6O[C@H](CO)[C@@H](O)[C@H](O)[C@H]6O)ccc5Cl)cc4)cc3)c2)[C@H](O)[C@@H](O)[C@@H]1O` [Compound 10, (2R,2′R,3S,3′S,4R,4′R,5R,5′R,6S,6′S)-6,6′-(((((oxybis(ethane-2,1-diyl))bis(oxy))bis(4,1-phenylene))bis(methylene))bis(4-chloro-3,1-phenylene))bis(2-(hydroxymethyl)tetrahydro-2H-pyran-3,4,5-triol)] had an IC50 of 7.6 nM.

Compound `OC[C@H]1O[C@@H](c2ccc(Cl)c(Cc3ccc(OCCOCCOCCOc4ccc(Cc5cc([C@@H]6O[C@H](CO)[C@@H](O)[C@H](O)[C@H]6O)ccc5Cl)cc4)cc3)c2)[C@H](O)[C@@H](O)[C@@H]1O` [Compound 11] returned an IC50 of 20.8 nM.

Compound `OC[C@H]1O[C@@H](c2ccc(Cl)c(Cc3ccc(OCCOCCOCCOCCOc4ccc(Cc5cc([C@@H]6O[C@H](CO)[C@@H](O)[C@H](O)[C@H]6O)ccc5Cl)cc4)cc3)c2)[C@H](O)[C@@H](O)[C@@H]1O` [Compound 12] had an IC50 of 9.6 nM.

Take `OC[C@H]1O[C@@H](c2ccc(Cl)c(Cc3ccc(OCc4ccc(COc5ccc(Cc6cc([C@@H]7O[C@H](CO)[C@@H](O)[C@H](O)[C@H]7O)ccc6Cl)cc5)cc4)cc3)c2)[C@H](O)[C@@H](O)[C@@H]1O` [Compound 13]: the IC50 worked out at 32 nM.

With `OC[C@H]1O[C@@H](c2ccc(Cl)c(Cc3ccc(OCc4ccc(COc5ccc(Cc6cc([C@@H]7O[C@H](CO)[C@@H](O)[C@H](O)[C@H]7O)ccc6Cl)cc5)nc4)cc3)c2)[C@H](O)[C@@H](O)[C@@H]1O` [Compound 14, (2R,2′R,3S,3′S,4R,4′R,5R,5′R,6S,6′S)-6,6′-(((((pyridine-2,5-diylbis(methylene))bis(oxy))bis(4,1-phenylene))bis(methylene))bis(4-chloro-3,1-phenylene))bis(2-(hydroxymethyl)tetrahydro-2H-pyran-3,4,5-triol) trifluoroacetate], the IC50 came to 4.8 nM.

On to `C[N+](C)(CCOc1ccc(Cc2cc([C@@H]3O[C@H](CO)[C@@H](O)[C@H](O)[C@H]3O)ccc2Cl)cc1)CCOc1ccc(Cc2cc([C@@H]3O[C@H](CO)[C@@H](O)[C@H](O)[C@H]3O)ccc2Cl)cc1` [Compound 15, trifluoroacetate], for which the IC50 came out at 121 nM.

In turn, `C[N+]1(Cc2ccc(COc3ccc(Cc4cc([C@@H]5O[C@H](CO)[C@@H](O)[C@H](O)[C@H]5O)ccc4Cl)cc3)cc2)CCC(C2CC[N+](C)(Cc3ccc(COc4ccc(Cc5cc([C@@H]6O[C@H](CO)[C@@H](O)[C@H](O)[C@H]6O)ccc5Cl)cc4)cc3)CC2)CC1` (stereo partly drawn) [Compound 16, 1,1′-bis(4-((4-(2-chloro-5-((2S,3R,4R,5S,6R)-3,4,5-trihydroxy-6-(hydroxymethyl)tetrahydro-2H-pyran-2-yl)benzyl)phenoxy)methyl)benzyl)-1,1′-dimethyl-[4,4′-bipiperidine]-1,1′-diium trifluoroacetate] displayed an IC50 of 4 nM. This IC50 is about 30-fold lower than that of the compound before.

With `C[N+]1(Cc2ccc(COc3ccc(Cc4cc([C@@H]5O[C@H](CO)[C@@H](O)[C@H](O)[C@H]5O)ccc4Cl)cc3)cc2)CCC(CCC2CC[N+](C)(Cc3ccc(COc4ccc(Cc5cc([C@@H]6O[C@H](CO)[C@@H](O)[C@H](O)[C@H]6O)ccc5Cl)cc4)cc3)CC2)CC1` (stereo partly drawn) [Compound 17, 4,4′-(ethane-1,2-diyl)bis(1-(4-((4-(2-chloro-5-((2S,3R,4R,5S,6R)-3,4,5-trihydroxy-6-(hydroxymethyl)tetrahydro-2H-pyran-2-yl)benzyl)phenoxy)methyl)benzyl)-1-methylpiperidin-1-ium) trifluoroacetate], the midpoint of inhibition, the IC50, lay at 5 nM. This IC50 and that of the compound before are within 1.5-fold of each other.

Take `C[N+](C)(CCCc1ccc(-c2ccc(Cc3cc([C@@H]4O[C@H](CO)[C@@H](O)[C@H](O)[C@H]4O)ccc3Cl)s2)cc1)CCOc1ccc(-c2ccc(Cc3cc([C@@H]4O[C@H](CO)[C@@H](O)[C@H](O)[C@H]4O)ccc3Cl)s2)cc1` [Compound 19, N-(2-(4-(5-(2-chloro-5-((2S,3R,4R,5S,6R)-3,4,5-trihydroxy-6-(hydroxymethyl)tetrahydro-2H-pyran-2-yl)benzyl)thiophen-2-yl)phenoxy)ethyl)-3-(4-(5-(2-chloro-5-((2S,3R,4R,5S,6R)-3,4,5-trihydroxy-6-(hydroxymethyl)tetrahydro-2H-pyran-2-yl)benzyl)thiophen-2-yl)phenyl)-N,N-dimethylpropan-1-aminium trifluoroacetate]: half-maximal inhibition (IC50) was put at 24 nM.

(Values after patent publication US20210388015A1, “GLUCOPYRANOSE DERIVATIVES USEFUL AS SGLT2 INHIBITORS” (Janssen Pharmaceutica NV, priority 2018, published 2021).)
